Measured values from the supplement of paper PMC10307832.

Key:
Assay in all cases: relative viability (nuclei count vs DMSO), 5 days (fraction); higher = more cells survive
[1] = compound: C/C(=N\NC(=S)N1CCC1)/C2=CC=CC=N2 + CC(=O)c1c(C)c2cnc(Nc3ccc(N4CCNCC4)cn3)nc2n(C2CCCC2)c1=O [Palbociclib] (partner 0.5 µM)
Method in brief: (§1)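 A single step with final 0.05% Triton X-100, 1% formaldehyde and 1 ug/ml Hoechst fixed the cells and stained nuclei 5 days after treatment. Lung cancer cell lines in 1536-well plates had been treated by pin tool the day after seeding with one drug alone or a fixed anchor-drug dose plus five library-drug doses (not always all listed) in √10 steps, and nuclei were counted on 4× images. Relative viability is the ratio of nuclei in treated wells to nuclei in vehicle wells, taken as the median of duplicate plates.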

[2] = compound: C/C(=N\NC(=S)N1CCC1)/C2=CC=CC=N2 + Cc1nc(NC(=O)N2CCC[C@H]2C(N)=O)sc1-c1ccnc(C(C)(C)C(F)(F)F)c1 [Alpelisib] (partner 2 µM)
Method in brief: as §1

[3] = compound: C/C(=N\NC(=S)N1CCC1)/C2=CC=CC=N2 + Nc1nc2[nH]cc(CCc3ccc(C(=O)N[C@@H](CCC(=O)O)C(=O)O)cc3)c2c(=O)[nH]1 [Pemetrexed] (partner 0.2 µM)
Method in brief: as §1

[4] = compound: C/C(=N\NC(=S)N1CCC1)/C2=CC=CC=N2 + O=C(c1cc(Cc2n[nH]c(=O)c3ccccc23)ccc1F)N1CCN(C(=O)C2CC2)CC1 [Olaparib] (partner 8 µM)
Method in brief: as §1

Cell Line | relative viability ([1]; first compound 0.05 µM) | relative viability ([1]; first compound 0.1581 µM) | relative viability ([1]; first compound 0.5 µM) | relative viability ([1]; first compound 1.581 µM) | relative viability ([1]; first compound 5 µM) | relative viability ([2]; first compound 0.05 µM) | relative viability ([2]; first compound 0.1581 µM) | relative viability ([2]; first compound 0.5 µM) | relative viability ([2]; first compound 1.581 µM) | relative viability ([2]; first compound 5 µM) | relative viability ([3]; first compound 0.05 µM) | relative viability ([3]; first compound 0.1581 µM) | relative viability ([3]; first compound 0.5 µM) | relative viability ([3]; first compound 1.581 µM) | relative viability ([3]; first compound 5 µM) | relative viability ([4]; first compound 0.05 µM) | relative viability ([4]; first compound 0.1581 µM) | relative viability ([4]; first compound 0.5 µM) | relative viability ([4]; first compound 1.581 µM) | relative viability ([4]; first compound 5 µM)
NCI-H2405 | 0.217 | 0.25 | 0.26 | 0.214 | 0.21 | 0.179 | 0.198 | 0.276 | 0.202 | 0.199 | 0.243 | 0.238 | 0.251 | 0.215 | 0.215 | 0.259 | 0.272 | 0.268 | 0.252 | 0.208
NCI-H3122 | 0.0974 | 0.166 | 0.103 | 0.148 | 0.127 | 0.154 | 0.133 | 0.193 | 0.196 | 0.192 | 0.0953 | 0.11 | 0.11 | 0.149 | 0.15 | 0.118 | 0.291 | 0.0987 | 0.145 | 0.142
PC-3 [JPC-3] | 0.328 | 0.485 | 0.409 | 0.362 | 0.373 | 0.556 | 1.03 | 0.341 | 0.282 | 0.208 | 0.394 | 0.464 | 0.308 | 0.265 | 0.237 | 0.581 | 0.506 | 0.432 | 0.382 | 0.351
PC-14 | 0.0312 | 0.0553 | 0.052 | 0.0451 | 0.0402 | 0.108 | 0.0754 | 0.067 | 0.0556 | 0.0881 | 0.0492 | 0.0611 | 0.0691 | 0.0506 | 0.0521 | 0.0569 | 0.064 | 0.0532 | 0.0383 | 0.0401
RERF-LC-KJ | 0.211 | 0.19 | 0.194 | 0.198 | 0.212 | 0.212 | 0.234 | 0.23 | 0.205 | 0.256 | 0.211 | 0.231 | 0.235 | 0.191 | 0.222 | 0.255 | 0.248 | 0.274 | 0.271 | 0.255
SK-LU-1 | 0.233 | 0.233 | 0.246 | 0.196 | 0.233 | 0.209 | 0.163 | 0.19 | 0.146 | 0.196 | 0.293 | 0.28 | 0.282 | 0.187 | 0.246 | 0.162 | 0.175 | 0.22 | 0.135 | 0.15
SK-MES-1 | 0.221 | 0.2 | 0.2 | 0.174 | 0.177 | 0.203 | 0.205 | 0.188 | 0.165 | 0.183 | 0.248 | 0.258 | 0.23 | 0.177 | 0.207 | 0.198 | 0.213 | 0.162 | 0.174 | 0.164
SW 1573 | 0.0872 | 0.139 | 0.131 | 0.0878 | 0.0783 | 0.107 | 0.155 | 0.169 | 0.1 | 0.0847 | 0.0863 | 0.149 | 0.169 | 0.0609 | 0.0817 | 0.0806 | 0.0899 | 0.138 | 0.0631 | 0.0687
UMC-11 | 0.155 | 0.139 | 0.238 | 0.213 | 0.169 | 0.235 | 0.182 | 0.153 | 0.117 | 0.126 | 0.221 | 0.169 | 0.159 | 0.141 | 0.138 | 0.163 | 0.122 | 0.137 | 0.131 | 0.106
